{"source": "patent US20140073694A1", "about": "“CYSTAMINE ANALOGUES FOR THE TREATMENT OF PARKINSON'S DISEASE” (UNIVERSITE LAVAL, priority 2011, published 2014)", "origin": "cited, not measured here", "system": "Huntington's disease patients", "conditions": "cited from earlier work", "data": [{"smiles": "NCCS.O=C(O)C(O)C(O)C(=O)O", "note": "(centres unmarked) [cysteamine bitartrate]", "values": [{"measurement": "clinical efficacy", "result": "clinical efficacy was not demonstrated"}, {"measurement": "tolerable dose", "setting": "dose escalation 10 to 70 mg/kg per day", "result": 20, "unit": "mg/kg per day"}]}]}
